test system: β-catenin-TCF-mediated reporter transcription activity in Colo 205 cells; assay: Colo 205 reporter assay (TCF/LEF promoter-driven firefly luciferase); format: cell-based; settings: Homo sapiens; Colo 205 TCF/LEF luciferase reporter, 5 hours after compound addition, 384 well; read-out: Colo205 IC50
Source text: The compounds of the invention described herein were screened using the assay procedure for β-catenin-TCF-mediated reporter transcription activity described below.
Reporter cell lines were generated by stably transfecting cells of cancer cell lines (e.g., colon cancer) with a plasmid reporter construct (From SABiosciences, a QIAGEN company) that includes TCF/LEF promoter driving expression of the firefly luciferase gene. TCF/LEF reporter constructs were made in which TCF/LEF promoter, a promoter with optimal number of TCF/LEF binding sites designed by SABiosciences, was linked upstream of the firefly luciferase gene. This construct could also include a puromycin resistance gene as a selectable marker. This construct could also be used to stably transfect Colo 205 cells, a colon cancer cell line having a mutated APC gene that causes a constitutively active β-catenin. A control cell line was generated using another plasmid construct containing the luciferase gene under the control of a CMV basal promoter which is not activated by β-catenin.
Colo 205 Cultured cells with a stably transfected reporter construct were plated at approximately 10,000 cells per well into 384 well multi-well plates for twenty four hours. The testing compounds were then added to the wells in 2-fold serial dilutions using a twenty micromolar top concentration. A series of control wells for each cell type received only compound solvent. Five hours after the addition of compound, reporter activity for luciferase was assayed, by addition of the SteadyGlo luminescence reagent (Promega). The reporter luminescence activity was measured using Pherastar plate reader (BMG Labtech). Readings were normalized to DMSO only treated cells, and normalized activities were then used in the IC50 calculations. The Colo 205 reporter assay data are summarized in Table 3: A<0.3 μM; 0.3 μM≤B<1.0 μM; 1.0 μM≤C<5.0 μM; D≥5.0 μM.

Row | IC50 | Structure (SMILES)
1 | 0.3 to 1 µM | CSc1ccccc1C1CCCCCN1c1cc(C)nc(N)n1 (racemic) [I-5, (+/−)-4-methyl-6-(2-(2-(methylthio)phenyl)azepan-1-yl)pyrimidin-2-amine]
2 | < 0.3 µM | Cc1cc(N2CCCOCC2c2ccccc2Cl)nc(N)n1 (racemic) [I-19, (+/−)-4-[3-(2-chlorophenyl)-1,4-oxazepan-4-yl]-6-methyl-pyrimidin-2-amine]
3 | < 0.3 µM | Cc1cc(N2CCCOCC2c2ccccc2F)nc(N)n1 (racemic) [I-32, (+/−)-4-[3-(2-fluorophenyl)-1,4-oxazepan-4-yl]-6-methyl-pyrimidin-2-amine]
4 | 0.3 to 1 µM | Cc1cc(N2CCCOCC2c2ccc(F)cc2Cl)nc(N)n1 (racemic) [I-63, (+/−)-4-[3-(2-chloro-4-fluoro-phenyl)-1,4-oxazepan-4-yl]-6-methyl-pyrimidin-2-amine]
5 | 1 to 5 µM | Cc1cc(N2CCCOCC2c2ccc(S(C)(=O)=O)cc2Cl)nc(N)n1 (racemic) [I-66, (+/−)-4-(3-(2-chloro-4-(methylsulfonyl)phenyl)-1,4-oxazepan-4-yl)-6-methylpyrimidin-2-amine]
6 | 0.3 to 1 µM | COc1cc(S(C)(=O)=O)ccc1C1CCCCCN1c1cc(C)nc(N)n1 (racemic) [I-88, (+/−)-4-(2-(2-methoxy-4-(methylsulfonyl)phenyl)azepan-1-yl)-6-methylpyrimidin-2-amine]
7 | 0.3 to 1 µM | COc1ccc(OC)c(C2COCCCN2c2cc(C)nc(N)n2)c1 (racemic) [I-93, (+/−)-4-[3-(2,5-dimethoxyphenyl)-1,4-oxazepan-4-yl]-6-methyl-pyrimidin-2-amine]
8 | 0.3 to 1 µM | Cc1cc(N2CCCOCC2c2cc([S+](C)[O-])ccc2Cl)nc(N)n1 (racemic) [I-110, (+/−)-4-(3-(2-chloro-5-(methylsulfinyl)phenyl)-1,4-oxazepan-4-yl)-6-methylpyrimidin-2-amine]
9 | 0.3 to 1 µM | COC(=O)c1ccc(OC)c(C2CCCCCN2c2cc(C)nc(N)n2)c1 (racemic) [I-111, (+/−)-Methyl 3-(1-(2-amino-6-methylpyrimidin-4-yl)azepan-2-yl)-4-methoxybenzoate]
10 | 0.3 to 1 µM | Cc1cc(N2CCCOCC2c2cc3c(cc2Cl)OCO3)nc(N)n1 (racemic) [I-113, (+/−)-4-[3-(6-chloro-1,3-benzodioxol-5-yl)-1,4-oxazepan-4-yl]-6-methyl-pyrimidin-2-amine]

test system: XBP1(u)-luciferase splicing reporter in HepG2 hepatoma cells; assay: HepG2 XBP1 reporter assay (XBP1(u)-Luc); format: cell-based; settings: Homo sapiens, 6 h, six hours after addition of compound
Source text: HepG2 XBP1 Reporter Assay
HepG2 hepatoma cells were transduced with a retrovirus encoding the cDNA for unspliced (u) XBP1, which contains a non-processed intron, fused to the cDNA for firefly luciferase. Upon induction of ER stress, the non-processed intron of XBP1(u) is spliced out by active IRE1alpha endonuclease. The resulting spliced (s) XBP1 is now in frame with luciferase which causes the production of active luciferase protein, resulting in bioluminescence
HepG2 XBP1(u)-Luc cells were plated […] Cultured cells with a stably transfected reporter construct were plated at approximately 30,000 cells per well into 96 well multi-well plates for twenty four hours. The testing compounds were then added to the wells in 3-fold serial dilutions using a twenty seven micromolar top concentration. A series of control wells for each cell type received only compound solvent. Six hours after the addition of compound, reporter activity for luciferase was assayed, by addition of the SteadyGlo luminescence reagent (Promega). The reporter luminescence activity was measured using Pherastar plate reader (BMG Labtech). Readings was normalized to DMSO only treated cells, and normalized activities were then used in the IC50 calculations. The HepG2 XBP1 reporter assay data are summarized in Tables 3-5: A<0.6 μM; 0.6 μM≤B<2.0 μM; 2.0 μM≤C<5.0 μM; D≥5.0 μM.

Row | IC50 | Structure (SMILES)
11 | ≥ 5 µM | Cc1cc(N2CCCOC[C@H]2c2cc(O)c(C(=O)NC(C)C)cc2Cl)nc(N)n1 [D-121]
12 | < 0.6 µM | Cc1cc(N2CCCOCC2c2cc3c(cc2Cl)NC[C@@](C)(C(=O)NC2CC2)O3)nc(N)n1 (stereo partly drawn) [D-122]
13 | 2 to 5 µM | Cc1cc(N2CCCOC[C@@H]2c2cc(O)c(C(=O)NC(C)C)cc2Cl)nc(N)n1 [D-123]
14 | < 0.6 µM | Cc1cc(N2CCCOCC2c2cc3c(cc2Cl)NC[C@@](C)(C(=O)NC(C)C)O3)nc(N)n1 (stereo partly drawn) [D-124]
15 | < 0.6 µM | Cc1cc(N2CCCOCC2c2cc3c(cc2Cl)NC[C@@](C)(C(=O)OC(C)C)O3)nc(N)n1 (stereo partly drawn) [D-125]
16 | < 0.6 µM | Cc1cc(N2CCCOC[C@@H]2c2cc3c(cc2Cl)NC[C@@](C)(C(=O)N2CCOCC2)O3)nc(N)n1 [D-126]
17 | < 0.6 µM | COc1cc(OC)c(C2COCCCN2c2cc(C)nc(N)n2)cc1O [D-127]
18 | 0.6 to 2 µM | Cc1cc(N2CCCOC[C@H]2c2cc3c(cc2Cl)NC[C@@](C)(C(=O)OC(C)C)O3)nc(N)n1 [D-128]
19 | ≥ 5 µM | CCOC(=O)c1cc(C2COCCCN2c2cc(C)nc(N)n2)c(Cl)cc1C#N [D-129]
20 | ≥ 5 µM | Cc1cc(N2CCCOC[C@@H]2c2cc(O)c(C(=O)NCCO)cc2Cl)nc(N)n1 [D-130]
21 | ≥ 5 µM | Cc1cc(N2CCCOC[C@@H]2c2cc(O)c(C(=O)NC3CC3)cc2Cl)nc(N)n1 [D-131]
22 | < 0.6 µM | Cc1cc(N2CCCOC[C@@H]2c2cc3c(cc2Cl)NC[C@@](C)(C(=O)N(C)C)O3)nc(N)n1 [D-132]
23 | < 0.6 µM | Cc1cc(N2CCCOC[C@@H]2c2cc3c(cc2Cl)NC[C@@](C)(C(=O)NCCO)O3)nc(N)n1 [D-133]
24 | ≥ 5 µM | CCOC(=O)c1cc(Cl)c(C2COCCCN2c2cc(C)nc(N)n2)cc1C#N [D-134]
25 | ≥ 5 µM | COC(=O)c1cc(Cl)c(C2COCCCN2c2cc(C)nc(N)n2)cc1C#N [D-135]
26 | < 0.6 µM | Cc1cc(N2CCCOCC2c2ccc(C(C)(C)S(C)(=O)=O)cc2Cl)nc(N)n1 [D-136]
27 | < 0.6 µM | Cc1cc(N2CCCOC[C@@H]2c2cc(O)c(C(=O)N3CCOCC3)cc2Cl)nc(N)n1 [D-137]
28 | ≥ 5 µM | CS(=O)(=O)c1ccc(C2COCCCN2c2ccnc(N)n2)c(Cl)c1 [D-138]
29 | 0.6 to 2 µM | Cc1cc(N2CCCOC[C@@H]2c2ccc([C@H](C)S(C)(=O)=O)cc2Cl)nc(N)n1 [D-139]
30 | ≥ 5 µM | Cc1cc(N2CCCOCC2c2ccc(Br)cc2OC(F)(F)F)nc(N)n1 [D-140]
31 | ≥ 5 µM | Cc1cc(N2CCCOCC2c2cc(CC(=O)O)c(C#N)cc2Cl)nc(N)n1 [D-156]
32 | ≥ 5 µM | CCOc1cc(C2COCCCN2c2cc(C)nc(N)n2)c(Cl)cc1OCC(=O)O [D-160]
33 | ≥ 5 µM | Cc1cc(N2CCCOC[C@H]2c2cc(N)c(OC(F)(F)F)cc2Cl)nc(N)n1 [D-161]
34 | ≥ 5 µM | CCc1cc(N2CCCOC[C@H]2c2ccc(OS(C)(=O)=O)cc2Cl)nc(N)n1 [D-162]
35 | ≥ 5 µM | Cc1cc(N2CCCOC[C@H]2c2ccc(C3CCN(C4COC4)CC3)cc2Cl)nc(N)n1 [D-163]
36 | ≥ 5 µM | Cc1cc(N2CCCOC[C@H]2c2cc(CN)c(C)cc2Cl)nc(N)n1 [D-164]

Row | IC50 | Structure (SMILES)
37 | ≥ 5 µM | Cc1cc(N2CCCOC[C@H]2c2cc(O)c(C)cc2Cl)nc(N)n1 [D-165]
38 | ≥ 5 µM | Cc1cc(N2CCCOC[C@@H]2c2cnc(CS(C)(=O)=O)cc2Cl)nc(N)n1 [D-166]
39 | ≥ 5 µM | Cc1cc(N2CCCOC[C@H]2c2ncc(CS(C)(=O)=O)cc2Cl)nc(N)n1 [D-167]
40 | ≥ 5 µM | COc1ccc([C@@H]2COCCCN2c2cc(C)nc(N)n2)c(Cl)c1 [D-168]
41 | ≥ 5 µM | Cc1cc(N2CCCOC[C@H]2c2cc(O)c(CS(C)(=O)=O)cc2Cl)nc(N)n1 [D-171]
42 | ≥ 5 µM | Cc1cc(N2CCCOCC2c2cnc(CS(C)(=O)=O)nc2O)nc(N)n1 [D-172]
43 | ≥ 5 µM | Cc1cc(N2CCCOC[C@H]2c2ccc(CS(C)(=O)=O)nc2OC(F)F)nc(N)n1 [D-173]
44 | ≥ 5 µM | Cc1cc(N2CCCOC[C@H]2c2cc(CN)c(Cl)cc2C)nc(N)n1 [D-174]
45 | ≥ 5 µM | Cc1cc(N2CCCOCC2c2ccc3ncnn3c2)nc(N)n1 [D-175]
46 | ≥ 5 µM | CCOc1cc([C@@H]2COCCCN2c2cc(C)nc(N)n2)c(Cl)cc1OCC(N)=O [D-176]
47 | ≥ 5 µM | Cc1cc(N2CCCOCC2c2ccc(Cl)cc2C(=O)O)nc(N)n1 [D-177]
48 | ≥ 5 µM | C#CCOc1cc(Cl)c([C@@H]2COCCCN2c2cc(C)nc(N)n2)cc1OC [D-178]
49 | ≥ 5 µM | CCc1cc(N2CCCOC[C@H]2c2cc(O)c(OC)cc2Cl)nc(N)n1 [D-179]
50 | ≥ 5 µM | Cc1cc(N2CCCOC[C@H]2c2cc(O)c(C(N)=O)cc2Cl)nc(N)n1 [D-180]
51 | ≥ 5 µM | Cc1cc(N2CCCOC[C@@H]2c2cc3c(cc2Cl)NC[C@@](C)(C(=O)O)O3)nc(N)n1 [D-181]
52 | ≥ 5 µM | CNC(=O)c1cc(Cl)c([C@@H]2COCCCN2c2cc(C)nc(N)n2)cc1O [D-182]
53 | ≥ 5 µM | Cc1cc(N2CCCOC[C@H]2c2cc(O)c(C(=O)N(C)C)cc2Cl)nc(N)n1 [D-183]
54 | ≥ 5 µM | Cc1cc(N2CCCOC[C@H]2c2cc(O)c(OC(F)(F)F)cc2Cl)nc(N)n1 [D-184]
55 | ≥ 5 µM | Cc1cc(N2CCCOC[C@H]2c2cc(O)c(C(=O)NCCO)cc2Cl)nc(N)n1 [D-185]
56 | ≥ 5 µM | Cc1cc(N2CCCOC[C@H]2c2cc(O)c(C(=O)NC3CC3)cc2Cl)nc(N)n1 [D-186]
57 | ≥ 5 µM | Cc1cc(N2CCCOCC2c2ccc(C(=O)O)cc2Cl)nc(N)n1 [D-187]
58 | ≥ 5 µM | CS(=O)(=O)c1ccc(C2COCCCN2c2cc(C(F)(F)F)nc(N)n2)c(Cl)c1 [D-188]
59 | ≥ 5 µM | Cc1cc(N2CCCOC[C@H]2c2cc(O)c(C(=O)N3CCOCC3)cc2Cl)nc(N)n1 [D-189]
60 | ≥ 5 µM | Cc1cc(N2CCCOCC2c2ccc(S(C)(=O)=O)cc2C#N)nc(N)n1 [D-190]
61 | ≥ 5 µM | Cc1cc(N2CCCOC[C@@H]2c2ccc(C(C)(C)S(C)(=O)=O)cc2Cl)nc(N)n1 [D-191]
